Reference: patent US20150224089A1, “COMBINATIONS OF IKKi/TBK1 INHIBITORS WITH BETA ADRENERGIC AGONISTS OR SYMPATHETIC NERVOUS SYSTEM ACTIVATORS” (THE REGENTS OF THE UNIVERSITY OF MICHIGAN, priority 2014, published 2015)

Key:
[1] = tested on: inguinal WAT; test: Immunoblots in ex vivo inguinal WAT lysates after CL-316,243 treatment; set-up: species or system mice
Method: (A) Fold increase in serum FFA (left panel) and glycerol (right panel) levels 15 min after CL-316,243 injection in ND- or HFD-fed mice treated with amlexanox or vehicle control for 4 days. (B) Glycerol release from ex vivo epididymal (left panel) and inguinal (right panel) WATs after 1 hr pretreatment with amlexanox or vehicle. CL-316,243 treatment was started at time zero. (C) Immunoblots in inguinal WAT lysates from FIG. 5B after 60 min of CL-316,243 treatment. (D) cAMP levels in epididymal WAT 20 min after CL-316,243 (CL) or saline control injection in HFD-fed mice treated with amlexanox or vehicle control for 4 days. (E) Immunoblots in epididymal WAT 5 min after CL-316,243 or saline control injection in HFD-fed mice treated with amlexanox or vehicle control for 4 days. (F) Relative oxygen comsumption of mice in each treatment group. […]

[2] = tested on: epididymal adipose tissue; test: cAMP levels in epididymal WAT after CL-316,243 injection in HFD-fed mice; type: in vivo; settings: HFD mice pretreated with amlexanox 4 days; 20 min after CL-316,243 IP injection
Method: (A) Fold increase in serum FFA (left panel) and glycerol (right panel) levels 15 min after CL-316,243 injection in ND- or HFD-fed mice treated with amlexanox or vehicle control for 4 days. (B) Glycerol release from ex vivo epididymal (left panel) and inguinal (right panel) WATs after 1 hr pretreatment with amlexanox or vehicle. CL-316,243 treatment was started at time zero. (C) Immunoblots in inguinal WAT lysates from FIG. 5B after 60 min of CL-316,243 treatment. (D) cAMP levels in epididymal WAT 20 min after CL-316,243 (CL) or saline control injection in HFD-fed mice treated with amlexanox or vehicle control for 4 days. (E) Immunoblots in epididymal WAT 5 min after CL-316,243 or saline control injection in HFD-fed mice treated with amlexanox or vehicle control for 4 days. (F) Relative oxygen comsumption of mice in each treatment group.
To examine whether inhibition of TBK1 and IKKε with amlexanox reverses resistance to catecholamineinduced lipolysis in vivo by increasing stimulation of cAMP production, cAMP levels we measured in epididymal adipose tissue from mice on HFD after CL-316,243 IP injection. Levels of cAMP were increased after CL-316,243 IP injection in mice on HFD pretreated with amlexanox (FIG. 5D).

[3] = tested on: 3T3-L1 adipocytes; test: Ucp1 gene expression in 3T3-L1 adipocytes; type: cell-based; settings: long-term treatment with TNFα
Method: (§1) (A) Fold increase in Ucp1 expression in 3T3-L1 adipocytes expressing empty vector, Flag-IKKε, or Flag-IKKε K38A following treatment with or without 10 μM ISO (black bars) or 10 μM CL-316,243 (CL, gray bars) for 4 hr. (B) Glycerol release from 3T3-L1 adipocytes expressing empty vector (white bars), Flag-IKKε (black bars), or Flag-IKKε K38A (gray bars) treated with or without 10 μM ISO or 10 μM CL. (C) Immunoblots of whole cell lysates from FIG. 1B. Results were replicated in triplicate. D.E. stands for dark exposure and L.E. stands for light exposure. (D) Immunoblots of whole cell lysates from 3T3-L1 adipocytes expressing empty vector or Flag-IKKε treated with or without 50 μM FSK for 15 min. (E) cAMP levels from 3T3-L1 adipocytes expressing empty vector, Flag-IKKε, or Flag-IKKε K38A treated with or without 10 μM ISO or 50 μM FSK for 15 min.
Sympathetic activation of adipose tissue is involved in maintaining energy balance by stimulating lipolysis and fat oxidation (Coppack et al., 1994; Langin, 2006; Festuccia et al., 2011; herein incorporated by reference in their entireties). Activation of β-adrenergic signaling by either β-adrenergic agonists or cold exposure in white and brown adipose tissue initiates a cascade of events through cyclic AMP (cAMP), culminating in the transcriptional upregulation of Ucp1, which results in increased proton leak and energy expenditure (Himms-Hagen et al., 2000; Cao et al., 2004; Yehuda-Shnaidman et al., 2010; herein incorporated by reference in their entireties). […] This effect was further analyzed by overexpressing IKKε in 3T3-L1 adipocytes and examining Ucp1 gene expression after treatment with the non-selective β-adrenergic agonist, isoproterenol (ISO), or the β3-adrenergic agonist, CL-316,243. Fold difference in Ucp1 gene expression was calculated by normalization of relative Ucp1 mRNA levels in treated relative to control samples. […] The induction of Ucp1 gene expression in response to ISO or CL-316,243 was blunted when WT IKKε was overexpressed in these cells. […]

[4] = tested on: 3T3-L1 adipocytes; test: Glycerol release (lipolysis) from 3T3-L1 adipocytes; type: cell-based; settings: TNFα for 24 hr, different concentrations; 10 μM ISO or 50 μM FSK
Method: as §1
(A) Glycerol release from 3T3-L1 adipocytes treated with or without different concentrations of TNFα as indicated for 24 hr followed by treatment with or without 10 μM ISO or 50 μM FSK. (B) cAMP levels from 3T3-L1 adipocytes treated with or without 100 ng/ml TNFα for 24 hr followed by treatment with or without 10 μM ISO or 50 μM FSK in the presence or absence of pretreatment of 50 μM Amlexanox (Am). (C) cAMP levels from 3T3-L1 adipocytes treated with or without 100 ng/ml TNFα for 24 hr followed by treatment with or without 50 μM FSK in the presence or absence of pretreatment of 1 μM CAY10576 (CAY). (D) Immunoblots of whole cell lysates from 3T3-L1 adipocytes treated with or without different concentrations of TNFα as same as FIG. 2A for 24 hr followed by treatment with or without 10 μM ISO or 50 μM FSK. Results were replicated in multiple experiments. ‘[’ indicates total HSL. ‘n.s.’ represents non-specific band. Arrow indicates CGI-58. (E) Immunoblots of whole cell lysates from 3T3-L1 adipocytes treated with or without 50 ng/ml TNFα or 100 μg/ml poly (I:C) for 24 hr followed by treatment with or without 10 μM ISO for 15 min in the presence or absence of pretreatment with increasing concentrations (0, 10, 50, and 200 μM) of amlexanox for 30 min.
The obesity-dependent increase was modeled in the noncanonical IKKs by overexpressing IKKε in 3T3-L1 adipocytes, followed by assay of glycerol release in response to ISO or CL-316,243. […] Overexpression of TBK1 reduced phosphorylation of HSL in response to isoproterenol or the adenylyl cyclase activator, forskolin (FIG. 1). Identical results were obtained when IKKε was overexpressed in 3T3-L1 adipocytes stimulated with forskolin (FIG. 1D), as detected by western blotting with an anti-phospho-PKA substrate motif antibody. […]

Row | Compound | phosphorylation of TBK1 at Ser172 ([1]; ex vivo amlexanox pretreatment, relief of feedback inhibition) | phosphorylation of HSL, perilipin and PKA substrate motif proteins in response to CL-316,243 ([1]; inguinal fat depot, amlexanox pretreatment vs vehicle-pretreated, 60 min CL-316,243) | cAMP levels in epididymal adipose tissue [2] | induction of Ucp1 gene expression in response to β-adrenergic stimuli [3] | glycerol release in response to isoproterenol and forskolin [4]
1 | CC(C)c1ccc2oc3nc(N)c(C(=O)O)cc3c(=O)c2c1 [amlexanox, 2-amino-7-isopropyl-1-azaxanthone-3-carboxylic acid; 2-amino-7-isopropyl-5-oxo-5H-chromeno[2,3-b]pyridine-3-carboxylic acid] | increased | increased phosphorylation | increased | – | –
2 | TNFα | – | – | – | repressed | decreased glycerol release
